The nature of the test: Tested in vitro for inhibition of Serotonin uptake. Format: functional.

In turn, `FC(F)(F)c1ccc(OC2(c3ccccc3)CCNCC2)cc1` registered an Activity of 580 nM. With `CNCCC(Oc1ccc(C(F)(F)F)cc1)c1ccccc1` (configuration not stated), the Activity was found to be 700 nM.

Values taken from ChEMBL document CHEMBL1151059, “Synthesis and x-ray structure of a potent superpositional analog of the enantiomeric forms of fluoxetine” (Bioorg Med Chem Lett, 1993).
